Source: patent EP4691468A1, “PHARMACEUTICAL COMPOSITION FOR TREATING INFLAMMATORY BOWEL DISEASE” (EA Pharma Co., Ltd., priority 2023, dated 2024)

Test: Phase 1 single-dose administration study: plasma concentration of Compound (2) by LC/MS/MS
Conditions: oral, single dose
Method: A phase 1 clinical trial was conducted to evaluate the safety, tolerability, and pharmacokinetics of Compound (1) when orally administered to healthy adult males.
This clinical trial was a single-center, randomized, double-blind, placebo-controlled, single and multiple ascending dose study with the primary objective of evaluating the safety and tolerability of Compound (1) when orally administered to healthy adult males.
The subjects in each cohort consisted of 8 people, of which 6 were assigned to Compound (1) and 2 were assigned to placebo, and they were administered the drug.
The plasma concentration of Compound (2) was measured using a validated measurement method. Specifically, plasma was separated from collected blood and processed, and then the plasma concentration was measured by an LC/MS/MS apparatus.
Compound (1) was orally administered once to 6 healthy adult males per dose and dosage form at doses of 6, 20, 100, 200, and 400 mg in the form of hard capsules (CAP), liquid self-emulsifying drug delivery system (L-SEDDS), or soft capsule self-emulsifying drug delivery system (C-SEDDS).

Average Plasma Concentrations of Compound (2) after Single-Dose Administration (Compound (1) 6 mg CAP, Time 1 h): 0.121 ng/mL
Average Plasma Concentrations of Compound (2) after Single-Dose Administration (Compound (1) 6 mg CAP, Time 1.5 h): 0.350 ng/mL
Average Plasma Concentrations of Compound (2) after Single-Dose Administration (Compound (1) 6 mg CAP, Time 2 h): 0.448 ng/mL
Average Plasma Concentrations of Compound (2) after Single-Dose Administration (Compound (1) 6 mg CAP, Time 2.5 h): 0.536 ng/mL
Average Plasma Concentrations of Compound (2) after Single-Dose Administration (Compound (1) 6 mg CAP, Time 3 h): 0.554 ng/mL
Average Plasma Concentrations of Compound (2) after Single-Dose Administration (Compound (1) 6 mg CAP, Time 4 h): 0.590 ng/mL
Average Plasma Concentrations of Compound (2) after Single-Dose Administration (Compound (1) 6 mg CAP, Time 5 h): 0.424 ng/mL
Average Plasma Concentrations of Compound (2) after Single-Dose Administration (Compound (1) 6 mg CAP, Time 6 h): 0.313 ng/mL
Average Plasma Concentrations of Compound (2) after Single-Dose Administration (Compound (1) 6 mg CAP, Time 7 h): 0.209 ng/mL
Average Plasma Concentrations of Compound (2) after Single-Dose Administration (Compound (1) 6 mg CAP, Time 8 h): 0.127 ng/mL
Average Plasma Concentrations of Compound (2) after Single-Dose Administration (Compound (1) 6 mg CAP, Time 12 h): 0.075 ng/mL
Average Plasma Concentrations of Compound (2) after Single-Dose Administration (Compound (1) 20 mg CAP, Time 1 h): 0.211 ng/mL
Average Plasma Concentrations of Compound (2) after Single-Dose Administration (Compound (1) 20 mg CAP, Time 1.5 h): 0.585 ng/mL
Average Plasma Concentrations of Compound (2) after Single-Dose Administration (Compound (1) 20 mg CAP, Time 2 h): 0.768 ng/mL
Average Plasma Concentrations of Compound (2) after Single-Dose Administration (Compound (1) 20 mg CAP, Time 2.5 h): 1.023 ng/mL
Average Plasma Concentrations of Compound (2) after Single-Dose Administration (Compound (1) 20 mg CAP, Time 3 h): 0.926 ng/mL
Average Plasma Concentrations of Compound (2) after Single-Dose Administration (Compound (1) 20 mg CAP, Time 4 h): 0.817 ng/mL
Average Plasma Concentrations of Compound (2) after Single-Dose Administration (Compound (1) 20 mg CAP, Time 5 h): 0.702 ng/mL
Average Plasma Concentrations of Compound (2) after Single-Dose Administration (Compound (1) 20 mg CAP, Time 6 h): 0.567 ng/mL
Average Plasma Concentrations of Compound (2) after Single-Dose Administration (Compound (1) 20 mg CAP, Time 7 h): 0.533 ng/mL
Average Plasma Concentrations of Compound (2) after Single-Dose Administration (Compound (1) 20 mg CAP, Time 8 h): 0.507 ng/mL
Average Plasma Concentrations of Compound (2) after Single-Dose Administration (Compound (1) 20 mg CAP, Time 12 h): 0.351 ng/mL
Average Plasma Concentrations of Compound (2) after Single-Dose Administration (Compound (1) 20 mg CAP, Time 15 h): 0.338 ng/mL
Average Plasma Concentrations of Compound (2) after Single-Dose Administration (Compound (1) 20 mg CAP, Time 21 h): 0.339 ng/mL
Average Plasma Concentrations of Compound (2) after Single-Dose Administration (Compound (1) 20 mg CAP, Time 24 h): 0.245 ng/mL
Average Plasma Concentrations of Compound (2) after Single-Dose Administration (Compound (1) 100 mg CAP, Time 1 h): 0.556 ng/mL
Average Plasma Concentrations of Compound (2) after Single-Dose Administration (Compound (1) 100 mg CAP, Time 1.5 h): 1.274 ng/mL
Average Plasma Concentrations of Compound (2) after Single-Dose Administration (Compound (1) 100 mg CAP, Time 2 h): 1.864 ng/mL
Average Plasma Concentrations of Compound (2) after Single-Dose Administration (Compound (1) 100 mg CAP, Time 2.5 h): 2.343 ng/mL
Average Plasma Concentrations of Compound (2) after Single-Dose Administration (Compound (1) 100 mg CAP, Time 3 h): 2.246 ng/mL
Average Plasma Concentrations of Compound (2) after Single-Dose Administration (Compound (1) 100 mg CAP, Time 4 h): 2.465 ng/mL
Average Plasma Concentrations of Compound (2) after Single-Dose Administration (Compound (1) 100 mg CAP, Time 5 h): 2.331 ng/mL
Average Plasma Concentrations of Compound (2) after Single-Dose Administration (Compound (1) 100 mg CAP, Time 6 h): 1.906 ng/mL
Average Plasma Concentrations of Compound (2) after Single-Dose Administration (Compound (1) 100 mg CAP, Time 7 h): 1.498 ng/mL
Average Plasma Concentrations of Compound (2) after Single-Dose Administration (Compound (1) 100 mg CAP, Time 8 h): 1.357 ng/mL
Average Plasma Concentrations of Compound (2) after Single-Dose Administration (Compound (1) 100 mg CAP, Time 12 h): 1.276 ng/mL
Average Plasma Concentrations of Compound (2) after Single-Dose Administration (Compound (1) 100 mg CAP, Time 15 h): 1.135 ng/mL
Average Plasma Concentrations of Compound (2) after Single-Dose Administration (Compound (1) 100 mg CAP, Time 21 h): 1.046 ng/mL
Average Plasma Concentrations of Compound (2) after Single-Dose Administration (Compound (1) 100 mg CAP, Time 24 h): 1.030 ng/mL
Average Plasma Concentrations of Compound (2) after Single-Dose Administration (Compound (1) 200 mg C-SEDDS, Time 0.5 h): Below quantitation limit
Average Plasma Concentrations of Compound (2) after Single-Dose Administration (Compound (1) 200 mg C-SEDDS, Time 1 h): Below quantitation limit
Average Plasma Concentrations of Compound (2) after Single-Dose Administration (Compound (1) 200 mg C-SEDDS, Time 1.5 h): 2.14 ng/mL
Average Plasma Concentrations of Compound (2) after Single-Dose Administration (Compound (1) 200 mg C-SEDDS, Time 2 h): 6.68 ng/mL
Average Plasma Concentrations of Compound (2) after Single-Dose Administration (Compound (1) 200 mg C-SEDDS, Time 2.5 h): 10.5 ng/mL
Average Plasma Concentrations of Compound (2) after Single-Dose Administration (Compound (1) 200 mg C-SEDDS, Time 3 h): 13.4 ng/mL
Average Plasma Concentrations of Compound (2) after Single-Dose Administration (Compound (1) 200 mg C-SEDDS, Time 4 h): 14.2 ng/mL
Average Plasma Concentrations of Compound (2) after Single-Dose Administration (Compound (1) 200 mg C-SEDDS, Time 5 h): 10.4 ng/mL
Average Plasma Concentrations of Compound (2) after Single-Dose Administration (Compound (1) 200 mg C-SEDDS, Time 6 h): 5.91 ng/mL
Average Plasma Concentrations of Compound (2) after Single-Dose Administration (Compound (1) 200 mg C-SEDDS, Time 7 h): 3.46 ng/mL
Average Plasma Concentrations of Compound (2) after Single-Dose Administration (Compound (1) 200 mg C-SEDDS, Time 8 h): 3.33 ng/mL
Average Plasma Concentrations of Compound (2) after Single-Dose Administration (Compound (1) 200 mg C-SEDDS, Time 12 h): 2.48 ng/mL
Average Plasma Concentrations of Compound (2) after Single-Dose Administration (Compound (1) 200 mg C-SEDDS, Time 15 h): 2.14 ng/mL
Average Plasma Concentrations of Compound (2) after Single-Dose Administration (Compound (1) 200 mg C-SEDDS, Time 21 h): 1.85 ng/mL
Average Plasma Concentrations of Compound (2) after Single-Dose Administration (Compound (1) 200 mg C-SEDDS, Time 24 h): 1.69 ng/mL
Average Plasma Concentrations of Compound (2) after Single-Dose Administration (Compound (1) 200 mg L-SEDDS, Time 0.5 h): 4.28 ng/mL
Average Plasma Concentrations of Compound (2) after Single-Dose Administration (Compound (1) 200 mg L-SEDDS, Time 1 h): 11.5 ng/mL
Average Plasma Concentrations of Compound (2) after Single-Dose Administration (Compound (1) 200 mg L-SEDDS, Time 1.5 h): 14.2 ng/mL
Average Plasma Concentrations of Compound (2) after Single-Dose Administration (Compound (1) 200 mg L-SEDDS, Time 2 h): 13.5 ng/mL
Average Plasma Concentrations of Compound (2) after Single-Dose Administration (Compound (1) 200 mg L-SEDDS, Time 2.5 h): 13.0 ng/mL
Average Plasma Concentrations of Compound (2) after Single-Dose Administration (Compound (1) 200 mg L-SEDDS, Time 3 h): 10.9 ng/mL
Average Plasma Concentrations of Compound (2) after Single-Dose Administration (Compound (1) 200 mg L-SEDDS, Time 4 h): 9.50 ng/mL
Average Plasma Concentrations of Compound (2) after Single-Dose Administration (Compound (1) 200 mg L-SEDDS, Time 5 h): 6.46 ng/mL
Structure (SMILES): Cc1cc(=O)n(-c2ccc(C[C@H](NC(=O)c3cc(F)c(NS(=O)(=O)c4ccc(NC(=O)C(C)(C)C)cc4)cc3F)C(=O)O)cn2)c(=O)n1C [Compound (2)]
